Measured values as given in patent publication US20180064780A1, “SHEAR CONTROLLED RELEASE FOR STENOTIC LESIONS AND THROMBOLYTIC THERAPIES” (PRESIDENT AND FELLOWS OF HARVARD COLLEGE, priority 2010, published 2018).

Key:
[1] = tested on: ex vivo whole mouse lung with fibrin emboli; assay: Mouse pulmonary embolism model (ex vivo whole lung ventilation-perfusion); assay type: in vivo
Description: Mouse Pulmonary Embolism Model—
Male 6-8 week-old C57BL/6 mice (Jackson Laboratory, Bar Harbor, Me.) were weighed and anesthetized with Avertin (200 mg/kg IP). The trachea was incised via surgical tracheotomy, and cannulated with a blunted 22G stainless steel needle tip. The lungs were subsequently ventilated at a rate of 60 breaths/min, with a Peak Inspiratory Pressure (Pip) of 10 cm H2O and a Positive End Expiratory Pressure (Peep) of 3 cm H2O with compressed air using a mouse ventilator (VCM-R, Hugo Sachs Elektroniks, Germany). Ex vivo ventilation and perfusion of the mouse lung was performed using a IL1 ex vivo mouse lung ventilation-perfusion system (Harvard Apparatus, Natick, Mass.), (D. Huh et al., Science 328, 1662 (2010)). Following initiation of mechanical ventilation, the chest was opened via thoracotomy, and heparin (100 IU) was injected into the right ventricle. […] A suture was placed around the pulmonary artery and aorta. Cannulae made from polyethylene tubing (PE90 (0.86 mm ID, 1.7 mm OD)) were placed in the pulmonary artery (PA) and left atrium (LA), and lungs were perfused with RPMI-1640 with 4% Bovine Albumin (Probumin™ Reagent Grade, Billerica, Mass.) and 0.7 g NaCl/500 mL via a roller pump (ISM 834C, Ismatec SA, Switzerland) set at a constant flow rate of 0.5 ml/min in a recirculating system with a system volume of 6 mL. Perfusate and lung temperatures were maintained at 37° C. by housing the entire ex-vivo ventilation perfusion system inside a standard cell incubator without CO2 (Forma Scientific, Ohio). Humidity was maintained in the range of 90-95%. Pulmonary arterial and venous pressures and airway flow and pressures were recorded with dedicated Type 379 vascular pressure and DLP2.5 flow and MPX Type 399/2 airway pressure transducers and TAM-A amplifiers (Hugo Sachs Elektroniks, Germany). Vascular pressures were zeroed at the mid lung level prior to each experiment and recorded using Polyview16© software (Grass Technologies, West Warwick, R.I.) running on a desktop PC running Windows XP SP2 (Microsoft Corporation, Redmond, Wash.).
Prior to injection of experimental fibrin clots (prepared as above), the measured parameters were allowed to stabilize and remain stable for a period of more than 10 minutes. A solution of fibrin clots suspended in perfusion medium was infused at a flow rate of 0.1 ml/min and mixed with the regular perfusion line entering the pulmonary artery. The fibrin clot suspension was infused until the pulmonary artery pressure increased to ˜three-fold higher than the baseline. The system was then allowed to equilibrate and remain stable for at least 10 minutes. Next, tPA-coated platelet mimetics or free soluble tPA was added to the main perfusion line and circulated through the perfusion system. As in the microfluidic device experiments, when tPA was perfused, plasminogen was added to obtain a final concentration of 2.2 μM. Pulmonary artery and vein pressures were acquired continuously during the perfusion period. At the end of each experiment, lungs were perfused with 4% paraformaldehyde, and prepared for sectioning by incubating in 4% paraformaldehyde, then sucrose and OCT. All experimental animal protocols were approved by the Institutional Animal Care and Use Committee at Children's Hospital Boston and Harvard Medical School.

fibrin clots = target: T1, fibrin clots (Homo sapiens, UniProt P02671+P02675+P02679); assay: Microfluidic model of vascular embolism (fibrin clot lysis); assay type: biochemical; details: t-PA 50 ng/ml; within 1 hour; 10 dyne/cm^2 in unobstructed channel
T1 construct: purchased Enzyme Research Laboratories, IN (fibrinogen, alpha-thrombin); Cell Sciences, MA (plasminogen)
T1 sequence (P02671 36-629 limits assumed): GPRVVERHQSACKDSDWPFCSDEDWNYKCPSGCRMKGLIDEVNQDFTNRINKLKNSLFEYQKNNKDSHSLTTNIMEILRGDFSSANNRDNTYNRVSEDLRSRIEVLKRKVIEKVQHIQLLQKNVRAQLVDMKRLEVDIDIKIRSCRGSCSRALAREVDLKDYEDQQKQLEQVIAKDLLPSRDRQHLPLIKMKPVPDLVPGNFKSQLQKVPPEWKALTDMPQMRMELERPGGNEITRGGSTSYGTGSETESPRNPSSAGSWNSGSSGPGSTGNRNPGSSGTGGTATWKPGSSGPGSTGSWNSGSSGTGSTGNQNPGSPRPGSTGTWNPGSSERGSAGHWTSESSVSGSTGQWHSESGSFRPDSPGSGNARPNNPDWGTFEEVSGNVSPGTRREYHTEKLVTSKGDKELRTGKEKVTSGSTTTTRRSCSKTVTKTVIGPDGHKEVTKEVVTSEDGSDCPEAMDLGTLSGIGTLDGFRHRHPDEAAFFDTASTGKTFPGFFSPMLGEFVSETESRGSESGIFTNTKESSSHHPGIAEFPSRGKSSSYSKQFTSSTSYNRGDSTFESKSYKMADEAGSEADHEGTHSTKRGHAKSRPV
T1 sequence (P02675 45-491 limits assumed): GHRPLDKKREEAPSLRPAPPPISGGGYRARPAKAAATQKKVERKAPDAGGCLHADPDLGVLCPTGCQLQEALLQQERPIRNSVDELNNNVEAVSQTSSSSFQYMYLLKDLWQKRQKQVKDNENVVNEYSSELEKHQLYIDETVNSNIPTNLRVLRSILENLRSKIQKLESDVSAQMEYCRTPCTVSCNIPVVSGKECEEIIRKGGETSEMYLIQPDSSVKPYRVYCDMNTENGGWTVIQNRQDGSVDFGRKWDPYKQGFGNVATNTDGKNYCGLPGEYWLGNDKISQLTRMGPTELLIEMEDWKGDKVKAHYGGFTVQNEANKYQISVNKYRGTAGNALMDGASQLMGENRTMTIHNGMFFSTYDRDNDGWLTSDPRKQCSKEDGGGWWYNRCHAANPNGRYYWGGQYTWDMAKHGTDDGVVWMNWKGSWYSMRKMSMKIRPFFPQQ
T1 sequence (P02679 27-437 isoform P02679-2 limits assumed): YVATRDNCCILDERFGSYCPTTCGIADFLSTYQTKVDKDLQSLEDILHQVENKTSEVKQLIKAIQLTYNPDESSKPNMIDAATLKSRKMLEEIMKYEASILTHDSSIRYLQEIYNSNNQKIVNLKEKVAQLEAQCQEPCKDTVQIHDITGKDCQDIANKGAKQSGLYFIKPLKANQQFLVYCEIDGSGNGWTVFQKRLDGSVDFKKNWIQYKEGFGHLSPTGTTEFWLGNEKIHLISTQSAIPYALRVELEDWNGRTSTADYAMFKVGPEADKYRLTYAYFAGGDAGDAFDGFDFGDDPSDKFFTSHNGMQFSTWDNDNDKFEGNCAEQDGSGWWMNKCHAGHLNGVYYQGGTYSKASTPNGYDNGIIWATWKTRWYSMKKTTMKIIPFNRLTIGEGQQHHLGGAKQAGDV
Description: Microfluidic Models of Vascular Embolism—
Microfluidic devices with a narrowed cross-sectional area (80 μm high×0.5 mm wide s 200 mm long) were fabricated using soft lithography as described above. Fibrin clots formed as described below that were infused into the main channel lodged and obstructed the flow in these smaller channels. A solution of t-PA or t-PA coated microaggregates was infused at a flow rate corresponding to a shear stress of 10 dyne/cm^2 in an unobstructed channel. Prior to infusion of the t-PA solutions, bovine plasminogen (Cell Sciences, MA) was added to a final concentration of 2.2 μM (S. L. Diamond, Annual review of biomedical engineering 1, 427 (1999)). During the fibrinolysis process, the fibrin clots size were monitored in real-time (images acquired every 30 sec) on an inverted Zeiss microscope.
Experimental Fibrin Emboli—
Fibrin clots were formed by adding CaCl2 (20 mM) and human α-thrombin (1 units/ml final concentrations, Enzyme Research Laboratories, IN) to human fibrinogen (5 mg/ml, Enzyme Research Laboratories, IN), as previously described (J. C. Murciano et al., Nature biotechnology 21, 891 (2003) and C. K. Lam, T. Yoo, B. Hiner, Z. Liu, J. Grutzendler, Nature 465, 478 (2010)). […] The diameter of the resulting fibrin beads was determined by optical microscopy to be ˜[…].

reduction of emboli (clot) size (fibrin clots): < 5%
Substance: tissue plasminogen activator [free t-PA]
dose required for similar effects on thrombolysis relative to tPA-coated platelet mimetics ([1]; 5000 ng/ml vs 50 ng/ml): 100 fold
effect on pulmonary artery pressure ([1]; 10 times higher dose, 500 ng/ml (FIG. 5G)): did not reduce the pulmonary artery pressure
effect on pulmonary artery pressure ([1]; tPA 50 ng/ml (FIG. 5G)): did not reduce the pulmonary artery pressure
effect on pulmonary artery pressure ([1]; tPA 50 ng/ml (FIG. 5G), listed as soluble tPA): failed to produce any significant clinical response
real-time pulmonary artery pressure: effect on pulmonary hypertension ([1]; tPA 50 ng/ml (FIG. 5H)): ineffective
